According to patent publication US20210355105A1, “REGULATOR OF NITROGEN-CONTAINING HETEROAROMATIC DERIVATIVES, PREPARATION METHOD THEREFOR AND USE THEREOF” (Jiangsu Hansoh Pharmaceutical Group Co., Ltd., priority 2018, published 2021):

Key:
[1] = system: NCI-H358 cells; test: Proliferation inhibition of NCI-H358 cells (CellTiter-Glo); assay type: cell-based; details: Homo sapiens, NCI-H358, 72 h; 3 days incubation
Description: Experimental method: 3000 cells (90 μL of cell suspension) were inoculated to each well of a 96-well cell culture plate (Corning, #3610). The culture plate was incubated in an incubator overnight (37° C., 5% CO2). On the next day, 10 μL of gradient dilutions of the test compound solution (the final DMSO content was 0.2%, V/V, the final concentration of the reaction system ranged from 10 μM to 4.5 nM) was added to each well of the culture plate. At the same time, full activity control (compound only with DMSO) and full inhibition control (no cells) were set up on the reaction plate. The culture plate was incubated in the incubator for 3 days (37° C., 5% CO2).
After completion of the incubation, 50 μL of CellTiter-Glo reagent was added to each well of the cell culture plate, which was left to stand at room temperature for 10 minutes. The chemiluminescence signal value was measured in the Synergy H1 full-function microplate reader (BioTek). […] The IC50 value of the test compounds was calculated by fitting the percentage inhibition rate and data of eight concentrations to a four-parameter nonlinear logic formula with GraphPad prism.
The IC50 value was calculated by fitting the data of different concentrations and corresponding percentage inhibition rates to a four-parameter nonlinear logic formula with GraphPad prism.

[2] = molecular target: T1, hERG potassium channel (Homo sapiens, UniProt Q12809); test: Inhibitory activity on hERG potassium channel (Qpatch, CHO-hERG cells); assay type: cell-based; details: six concentrations up to 40 μM, read-out: hERG (inhibitory effect on hERG current)
T1 construct: expressed in transfected cells; host or cells: CHO-hERG cells
T1 sequence (Q12809 whole entry): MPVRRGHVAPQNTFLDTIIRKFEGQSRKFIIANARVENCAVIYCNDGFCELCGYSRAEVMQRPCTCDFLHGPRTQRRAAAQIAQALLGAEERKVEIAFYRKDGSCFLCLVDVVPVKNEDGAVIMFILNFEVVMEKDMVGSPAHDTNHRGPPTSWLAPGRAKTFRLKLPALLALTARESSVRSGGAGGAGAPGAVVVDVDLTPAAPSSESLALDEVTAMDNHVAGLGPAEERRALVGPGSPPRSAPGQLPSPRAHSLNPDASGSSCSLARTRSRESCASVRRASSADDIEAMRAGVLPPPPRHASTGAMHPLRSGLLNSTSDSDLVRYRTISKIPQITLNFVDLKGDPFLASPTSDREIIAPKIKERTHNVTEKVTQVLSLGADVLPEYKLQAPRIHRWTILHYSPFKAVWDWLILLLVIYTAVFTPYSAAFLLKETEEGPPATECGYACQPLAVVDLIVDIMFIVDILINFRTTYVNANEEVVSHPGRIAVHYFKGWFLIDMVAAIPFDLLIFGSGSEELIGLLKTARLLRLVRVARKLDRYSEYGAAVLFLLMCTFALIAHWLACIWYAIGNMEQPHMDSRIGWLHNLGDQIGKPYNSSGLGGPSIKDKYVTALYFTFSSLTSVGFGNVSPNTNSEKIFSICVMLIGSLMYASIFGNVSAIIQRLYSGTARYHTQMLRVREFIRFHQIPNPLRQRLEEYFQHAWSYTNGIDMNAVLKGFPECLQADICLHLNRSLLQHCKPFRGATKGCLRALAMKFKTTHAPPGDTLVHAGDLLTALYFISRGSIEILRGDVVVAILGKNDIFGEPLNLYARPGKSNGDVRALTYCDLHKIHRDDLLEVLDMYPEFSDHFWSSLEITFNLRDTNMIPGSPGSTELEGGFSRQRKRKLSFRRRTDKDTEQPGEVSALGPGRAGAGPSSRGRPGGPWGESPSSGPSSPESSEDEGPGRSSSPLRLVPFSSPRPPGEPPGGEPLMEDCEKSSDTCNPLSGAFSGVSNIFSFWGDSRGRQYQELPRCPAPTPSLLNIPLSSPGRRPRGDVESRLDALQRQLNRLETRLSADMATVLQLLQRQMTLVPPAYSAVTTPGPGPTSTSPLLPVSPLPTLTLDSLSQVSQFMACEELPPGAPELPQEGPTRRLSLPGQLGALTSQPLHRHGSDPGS
Description: 8.1.1 CHO-hERG cells were cultured in a 175 cm^2 culture flask. When the cells were grown to a density of 60 to 80%, the culture solution was removed, and the cells were washed once with 7 mL of PBS, and then 3 mL of Detachin was added for digestion of the cells.
8.1.2 After the digestion was complete, the cells were neutralized by adding 7 mL of the culture solution and then centrifuged. The supernatant was removed, and then 5 mL of the culture solution was added for resuspension to ensure a cell density of 2-5×10^6 cells/mL.
The single-cell high-impedance sealing and whole-cell pattern formation processes were both completed automatically by the Qpatch instrument. After the whole-cell recording pattern was obtained, the cells were clamped at −80 millivolts. A pre-voltage of −50 millivolts was applied for 50 milliseconds prior to the application of a depolarizing stimulus of +40 millivolts for 5 seconds, and then the cells were repolarized to −50 millivolts and maintained for 5 seconds, and then returned back to −80 millivolts. This voltage stimulation was applied every 15 seconds, and data were recorded for 2 minutes, and thereafter the extracellular fluid was administered and data were recorded for 5 minutes, and then the administration process was started. The compound was administered from the lowest test concentration, and 2.5 minutes were given for each test concentration. After all the concentrations of the compound were administered, […] Cisapride as a positive control compound was administered. At least three cells (n≥3) were tested for each concentration.
8.4.1 20 mM compound mother solution was diluted with the extracellular fluid. 5 μL of the 20 mM compound mother solution was diluted 500 times to 40 μM by adding 2495 μL of the extracellular fluid, and then 3-fold serial dilutions were performed sequentially in the extracellular fluid containing 0.2% DMSO to obtain a final concentration to be tested.
8.4.2 The highest test concentration was 40 μM, and there were six concentrations in total, i.e., 40, 13.33, 4.44, 1.48, 0.49, and […], respectively.
The experimental data were analyzed by XLFit software.

[3] = molecular target: T2, SHP-2 full-length protein (Homo sapiens, UniProt Q06124); test: Inhibition of SHP-2 kinase activity (Homogeneous Full Length SHP-2 Assay Kit); assay type: biochemical; details: relative IC50, full-length SHP-2 with activating peptide
T2 construct: purchased BPS Bioscience 79330
T2 sequence (Q06124 1-593): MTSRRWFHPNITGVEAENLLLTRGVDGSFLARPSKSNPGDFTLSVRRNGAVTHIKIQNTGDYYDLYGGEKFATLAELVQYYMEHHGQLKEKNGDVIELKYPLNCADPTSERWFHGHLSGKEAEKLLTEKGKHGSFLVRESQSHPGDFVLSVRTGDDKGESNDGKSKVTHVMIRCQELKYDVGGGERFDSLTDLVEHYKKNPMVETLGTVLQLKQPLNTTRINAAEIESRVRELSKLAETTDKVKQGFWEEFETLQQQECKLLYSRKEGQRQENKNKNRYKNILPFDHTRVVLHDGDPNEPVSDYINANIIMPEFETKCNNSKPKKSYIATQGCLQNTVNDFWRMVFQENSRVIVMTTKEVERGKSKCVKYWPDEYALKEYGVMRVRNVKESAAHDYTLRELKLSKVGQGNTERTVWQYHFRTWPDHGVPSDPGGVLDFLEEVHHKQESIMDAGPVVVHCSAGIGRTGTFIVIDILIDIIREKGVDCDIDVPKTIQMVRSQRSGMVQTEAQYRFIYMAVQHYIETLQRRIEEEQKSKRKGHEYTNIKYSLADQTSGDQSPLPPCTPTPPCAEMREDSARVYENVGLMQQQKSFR
Description: The objective of this test is to determine the inhibitory effect of the compounds on SHP-2 full-length protein allosteric activity.
Experimental method: Homogeneous Full Length SHP-2 Assay Kit (BPS Bioscience, #79330) was used to determine the in vitro SHP-2 activity. First, 18 μL of Master Mix was added to a 96-well low adsorption microplate (NUNC, #267342), i.e., the reaction buffer with a final concentration of 1× comprised 0.5 μM SHP-2 activating Peptide and 5 mM DTT. After centrifugation, 5 μL of test compound/DMSO was added to each well (the final DMSO content was 1%, V/V, the test compound was dissolved in DMSO to 1 mM, a three-fold serial dilution was carried out to obtain ten concentrations, the final concentration of the reaction system ranged from 1 μM to 0.05 nM). SHP-2 was diluted in the 1× reaction buffer to a final concentration of 0.06 nM, and the resulting solution was added to the reaction microplate (2 μL per well). Full activity control (compound only with DMSO) and full inhibition control (no SHP-2) were set up on the reaction plate. After centrifugation, the reaction mixture was incubated at room temperature for 60 minutes.
After completion of the incubation, 25 μL of Substrate solution, which comprised Substrate with a final concentration of 10 μM and 5 mM DTT, was added to each well. After centrifugation, the reaction mixture was incubated at room temperature for 30 minutes. After completion of the reaction, readings were measured on the Synergy H1 full-function microplate reader (BioTek) (excitation wavelength: 340 nm, emission wavelength: […], gain value: 75).
The IC50 value of the test compounds was calculated by fitting the percentage inhibition rate and data of ten concentrations to a four-parameter nonlinear logic formula with GraphPad prism.

[4] = system: human pancreatic cancer cell MiaPaca 2 xenograft; test: Tumor inhibition test on MiaPaca 2 xenograft model; assay type: in vivo, Balb/c nude mice; details: 6 mg/kg QD × 3 w, intragastric
Description: Balb/c nude mice were used as test animals. In vivo pharmacodynamic test was carried out on human pancreatic cancer cell MiaPaca 2 xenograft (CDX) model to evaluate the anti-tumor effect of the test compounds.
MiaPaca 2 cells were taken from the cell bank and thawed. The cells were added to the DMEM medium (containing 10% FBS, 1% Glu and 1% P/S), and incubated in the CO2 incubator (the temperature of the incubator was 37° C., and the CO2 concentration was 5%). After the cells covered 80-90% of the bottom of the culture flask, the cells were passaged. After passage, the cells continued to be incubated in the CO2 incubator. The process was repeated until the number of cells met the inoculation requirement of the in vivo pharmacodynamic test. The cells in logarithmic growth phase were collected, and counted by the automatic cell counter. According to the counting results, the cells were resuspended with PBS and Matrigel (volume ratio: 1:1) to obtain a cell suspension (density: 8×10^7/ml), which was placed in an ice box for later use.
Female Balb/c nude mice (6-8 weeks old, body weight: about 18-22 grams) were used as test animals. The mice were maintained in an environment free of special pathogens and in a single ventilated cage (five mice per cage). All cages, bedding and water were disinfected before use. All animals had free access to standard certified commercial laboratory animal diets. The nude mice were marked with a disposable universal ear tag for rats and mice before the test. The skin of the inoculation site was disinfected with 75% medical alcohol before the inoculation. Each mouse was inoculated with 0.1 ml of MiaPaca 2 tumor cells (containing 8*10^6 cells) subcutaneously on the right back. When the average tumor volume reached 100 to 200 mm^3, administration was carried out. The test compounds were administered intragastrically daily. The tumor volume (mm^3) was measured with the vernier caliper twice a week. The tumor volume calculation formula: V=0.5*D*d*d, wherein D and d represent the long diameter and short diameter of the tumor, respectively. The anti-tumor efficacy was determined by dividing the average tumor increase volume of the compound-treated animals by the average tumor increase volume of the untreated animals. Tumor growth inhibition rate calculation formula: […]
All animals were euthanized after the experiment.

[5] = Pharmacokinetics assay in rats, oral administration; assay type: in vivo; details: rat; male SD rats, oral 5 mg/kg, plasma
Description: SD rats were used as test animals.
(§1) 5 g of hydroxyethyl cellulose (HEC, CMC-Na, viscosity: 800-1200 Cps) was dissolved in 1000 mL of purified water, and 10 g of Tween80 was added. The solution was mixed well to form a clear solution.
The solution was shaked well and subjected to ultrasound for 15 minutes to obtain a colorless and clear solution with a concentration of 0.5 mg/mL.
After an overnight fast, male SD rats (3 rats per group) were administrated orally with the test compounds at an administration dose of 5 mg/kg and an administration volume of 10 mL/kg.
0.2 mL of blood was taken from jugular vein before administration and at 0.5 hour, 1.0 hour, 2.0 hours, 4.0 hours, 6.0 hours, 8.0 hours and 24.0 hours after administration. The blood samples were stored in EDTA-2K tubes, and centrifuged for 6 minutes at 6000 rpm, at 4° C. to separate the blood plasma. The plasma samples were stored at −80° C. The rats were fed four hours after administration.

[6] = Pharmacokinetics assay in mice, oral administration; assay type: in vivo; details: mouse; male Balb/c mice, oral 5 mg/kg, plasma
Description: Balb/c mice were used as test animals.
as §1, with “solution. […] The solution was subjected to ultrasound for 10 minutes to obtain a colorless and clear solution with a concentration of 0.5 mg/mL.” for “solution.”
After an overnight fast, male Balb/c mice were administrated orally with the test compounds at an administration dose of 5 mg/kg and an administration volume of 10 mL/kg.
Blood was taken before administration and at 0.25 hour, 0.5 hour, 1 hour, 2 hours, 4 hours, 6 hours, 8 hours and 24 hours after administration. The blood samples were stored in EDTA-2K tubes, and centrifuged for 6 minutes at 6000 rpm, at 4° C. to separate the blood plasma. The plasma samples were stored at −80° C. The mice were fed four hours after administration.

IC50 [1] | IC50 [3] | AUC(0-inf) [5] | Cmax [5] | MRT [5] | Tmax [5] | half-life [5] | AUC(0-inf) [6] | Cmax [6] | MRT [6] | Tmax [6] | half-life [6] | Compound | IC50 [2] | Tumor volume (Mean ± SD) Day 0 [4] | TGI Day 21 [4] | Tumor volume (Mean ± SD) Day 21 [4] | ΔT/ΔC Day 21 [4]
13.4 nM | 9.28 nM | – | – | – | – | – | – | – | – | – | – | Cc1nc(Sc2ccnc(N)c2Cl)c(N)nc1N1CCC2(CC1)Cc1ccccc1[C@H]2N [Example 96, (S)-1′-(6-amino-5-((2-amino-3-chloropyridin-4-yl)thio)-3-methylpyrazin-2-yl)-1,3-dihydrospiro[indene-2,4′-piperidin]-1-amine] | 5240 nM | 170 ± 28 (171 ± 25) mm^3 | 97.76% | 183 ± 70 mm^3 | 2.24%
79.9 nM | 9.29 nM | 6250 ng·h/mL | 666 ng/mL | 5.67 h | 1 h | 4.12 h | 5980 ng·h/mL | 996 ng/mL | 5.15 h | 0.5 h | 3.92 h | Nc1nc(N2CCC3(CC2)Cc2ncccc2[C@H]3N)c(F)nc1Sc1ccnc(N)c1Cl [Example 180, (S)-1′-(6-Amino-5-((2-amino-3-chloropyridin-4-yl)thio)-3-fluoropyrazin-2-yl)-5,7-dihydrospiro[cyclopenta[b]pyridine-6,4′-piperidin]-5-amine] | – | – | – | – | –

Compound | IC50 [1] | IC50 [3] | AUC(0-inf) [5] | Cmax [5] | MRT [5] | Tmax [5] | half-life [5] | AUC(0-inf) [6] | Cmax [6] | MRT [6] | Tmax [6] | half-life [6] | IC50 [2] | Tumor volume (Mean ± SD) Day 0 [4] | TGI Day 21 [4] | Tumor volume (Mean ± SD) Day 21 [4] | ΔT/ΔC Day 21 [4]
Nc1nc(N2CCC3(CC=C(C4CC4)[C@H]3N)CC2)cnc1Sc1ccnc(N)c1Cl [Example 143, (S)-8-(6-amino-5-((2-amino-3-chloropyridin-4-yl)thio)pyrazin-2-yl)-2-cyclopropyl-8-azaspiro[4.5]dec-2-en-1-amine] | 23.3 nM | 3.8 nM | – | – | – | – | – | – | – | – | – | – | 6170 nM | 166 ± 27 (168 ± 32) mm^3 | 95.64% | 196 ± 62 mm^3 | 4.36%
